Experimental data reported in article PMC10287566, “Signaling-specific inhibition of the CB1 receptor for cannabis use disorder: phase 1 and phase 2a randomized trials” (Nature Medicine, 2023).

What was measured:
mice [1] = test: Glucocorticoid (corticosterone) secretion in mice; format: in vivo; settings: glucocorticoid, 10 mg/kg the known ID100
Procedure: Blood sampling was performed 2, 5, 8 and 24 h after dosing (n = 3 per sex per dose per sampling time). For blood sampling, mice were anaesthetized under isoflurane, and blood was collected by cardiac puncture. Blood was centrifuged, and plasma was taken and frozen at −80 °C until quantifications of corticosterone by GC–MS/MS.

DIO mice = test: Food intake and body weight in diet-induced obese mice, repeated treatment; format: in vivo
Procedure: Body weight and food intake were studied because they are reduced by repeated treatment with rimonabant both in mice[31] and in humans. DIO mice were used because the effects of CB1 antagonists are of greater amplitude in obese mice than in lean mice. Male C57BL/6J mice (8 weeks old) were fed ad libitum with a high-fat diet (HFD) for 8 weeks before the start of the pharmacological treatments. During pharmacological treatments, the HFD was maintained, and food intake and body weight were measured daily. The food consumed was calculated by subtracting the food left in the hoppers from the initial pre-weighed amount.

mice [2] = test: Anxiety-related behavior, elevated plus maze, repeated treatment; format: in vivo
Source text: (§1) Anxiety-like behaviors were studied in the elevated plus maze (EPM), a rodent model used to evaluate the putative anxiogenic or anxiolytic effects of pharmacological compounds. Depression-related behaviors were studied using the sucrose preference test as a model of anhedonia, one of the cardinal symptoms of depression.
The EPM apparatus comprises four elevated arms arranged in a cross-like shape, with the two opposite arms enclosed by walls and the other two arms open. For all experiments, mice were placed in the center of the EPM and were free to explore the maze for 5 min after receiving the treatment. The time spent and the number of entries into the open and closed arms were measured by an automatic video tracking system (EthoVision XT version 12, Noldus Information Technology). A decrease in the percentage of visits and/or the time spent in open arms is considered an index of increased anxiety.
(§2) The EPM assessment was done on day 26, and the sucrose preference test was done on day 28.

mice [3] = test: Depression-related behavior, sucrose preference test, repeated treatment; format: in vivo
Source text: as §1
The sucrose preference test was done in the home cage. Two identical bottles, one containing water and the other containing a 2% sucrose solution, were placed in the hopper of each cage. The mice had unlimited access to water and sucrose solutions during the active phase—the dark phase of the light/dark cycle that started at 20:00. The volume of water and of sucrose solution consumed was measured over two […] intervals, the first between 19:00 and 20:30 and the second between 20:30 and 22:00. At each timepoint, the bottles were weighed, and the intake volume was calculated by subtracting the […].
as §2

mice [4] = test: Precipitated withdrawal in THC-dependent mice; format: in vivo
Procedure: From day 1 to days 4–5, mice were injected i.p. with vehicle or THC (20 mg kg^−1) twice per day. On the last day of treatment, mice in the THC group received rimonabant or AEF0117. All other animals received the respective vehicle. […] For the measure of precipitated withdrawal, mice were placed in a novel home cage, and a video camera was positioned in front of each cage to record behavior. Scoring was performed for 1 min every 5-min period. Two withdrawal signs were analyzed—paw tremors and head shaking—because they are the most common signs of THC withdrawal observed in mice[14].

mice [5] = tested on: mice; parameters: method as in earlier work; settings: 10 mg/kg, not run in parallel; cited from earlier work

- N fold ID100 at highest dose tested (mice [1]): 1
- N fold ID100 at highest dose tested (mice [2]; anxiety, 10 mg/kg the known ID100): 1
- Overall effect: increase in anxiety-related behaviors (mice [2]; mice, elevated plus maze, highest dose tested 10 mg/kg, run in parallel): Yes
- N fold ID100 at highest dose tested (mice [3]; depression, 10 mg/kg the known ID100): 1
- Overall effect: increase in depression-related behaviors (mice [3]; mice, sucrose preference test, highest dose tested 10 mg/kg, run in parallel): Yes
- Overall effect: precipitated withdrawal in THC-dependent mice (mice [4]; highest dose tested 10 mg/kg, run in parallel): Yes
- N fold ID100 at highest dose tested (mice [4]; withdrawal, 10 mg/kg the known ID100): 1
SMILES: Cc1c(C(=O)NN2CCCCC2)nn(-c2ccc(Cl)cc2Cl)c1-c1ccc(Cl)cc1 [rimonabant, Rimonabant]
- body weight in DIO mice vs vehicle (DIO mice; 10 mg/kg): decreased
- N fold ID100 at highest dose tested (DIO mice; food-intake, 10 mg/kg the known ID100): 1
- Overall effect: inhibition of spontaneous food-intake (DIO mice; mice, highest dose tested 10 mg/kg, run in parallel): Yes
- Overall effect: increase in glucocorticoid secretion (mice [5]): Yes
